Patent US7517913B2, “Polyamine conjugates with acidic retinoids and preparation thereof” (priority 2002, dated 2009)
Counter-ions that a name gives are not always drawn.

Experiments:
[1] = target: RNase P isolated from D. discoideum; experiment: RNase P inhibition assay, enzyme from D. discoideum; format: biochemical, Dictyostelium discoideum; settings: negative intercept of slope replots, 37° C., buffer D, 10% DMSO
Source text: Inhibitory Activity on RNAse P. We have developed a method by which we can estimate rapidly the biological activity of the polyamine-retinoid conjugates. This method is based on the effect of the polyamine-retinoid conjugates on RNase P activity and is described in detail under the EXAMPLE 7. All synthesized conjugates were screened for their effect on RNase P activity by constructing the dose response curves. […] In order to carry out such analysis, the initial velocity in the presence or absence of the conjugate was determined from the initial slopes of time plots. The data plotted in double reciprocal plots (1/v versus 1/[S]) with increasing concentrations of polyamine-retinoid conjugates and the Ki values (the dissociation constant of the inhibitor (I), where I is a polyamine-retinoid conjugate, with the enzyme) were determined from the replots of the slopes of the double reciprocal plots versus the inhibitor's concentration (Papadimou et al., J. BIOL. CHEM. 273, 24375 (1998), Papadimou et al., SKIN PHARMACOL. APPL. SKIN PHYSIOL. 13, 345 (2000)). These replots lead to the graphical determination of Ki values from the negative intercept of the line with the I-axis. […] Similar plots were constructed for all conjugates. The Ki value is a very good measure for the accurate potency of the polyamine-retinoid conjugates.
(§1) RNase P assays were carried out at 37° C. in 20 μbuffer D (50 mM Tris/HCl pH 7.6, 10 mM NH4Cl, 5 mM MgCl2 and 5 mM dithiothreitol) if RNase P isolated from D. discoideum was used (Stathopoulos et al.; EUR. J. BIOCHEM. 228, 976 (1995)) or buffer K (50 mM Tris/HCl pH 7.5, 100 mM NH4Cl, 5 mM MgCl2 and 5 mM dithiothreitol) if RNase P isolated from human epidermal keratinocytes was used (Drainas et al, unpublished data), containing 2-5 finol pre-tRNA^ser substrate (an in vitro labeled transcript of the Schizosaccharoinyces pombe tRNA^ser gene supSI) and 1.3 μg protein from the RNase P fraction. Stock solutions of retinoids (natural or synthetic), are prepared in 100% dimethylosulfoxide (DMSO). When retinoids are used, enzyme assays are carried out in the presence of 10% DMSO. The reactions were stopped by addition of 5 μl stop dye (80% formamide, 50 mM EDTA, 0.1% bromophenol blue, 0.1% xylene cyanol). Reaction products were resolved on a denaturing 10% polyacrylamide/8 M urea gel and visualized by autoradiography without drying. Activity was quantified by Cerenkov counting of excised gel slices.

[2] = tested on: RNase P isolated from D. discoideum; settings: literature reports; RNase P from D. discoideum and normal human epidermal keratinocytes; cited from earlier work
[3] = tested on: RNase P from Dictyostelium discoideum; settings: literature; RNase P isolated from D. discoideum and from normal human epidermal keratinocytes; cited from earlier work
[4] = Manfredini et al., J. MED. CHEM., 40, 3851 (1997); cited from earlier work
[5] = target: RNase P from Dictyostelium discoideum; experiment: RNase P inhibition (pre-tRNA(Ser) cleavage, double reciprocal plots and slope replots); format: biochemical; settings: D. discoideum RNase P; 37° C., buffer D, 10% DMSO; from negative intercept of the slope replots
Source text: Inhibitory Activity on RNAse P. We have developed a method by which we can estimate rapidly the biological activity of the polyamine-retinoid conjugates. This method is based on the effect of the polyamine-retinoid conjugates on RNase P activity and is described in detail under the EXAMPLE 7. All synthesized conjugates were screened for their effect on RNase P activity by constructing the dose response curves. […] The accurate estimation of the inhibitory potency on the RNAse P of the strongest polyamine-retinoid conjugates were elucidated by detailed kinetic analysis of their effect on D. discoideum or human epidermal keratinocytes RNase P activity. In order to carry out such analysis, the initial velocity in the presence or absence of the conjugate was determined from the initial slopes of time plots. The data plotted in double reciprocal plots (1/v versus 1/[S]) with increasing concentrations of polyamine-retinoid conjugates and the Ki values (the dissociation constant of the inhibitor (I), where I is a polyamine-retinoid conjugate, with the enzyme) were determined from the replots of the slopes of the double reciprocal plots versus the inhibitor's concentration (Papadimou et al., J. BIOL. CHEM. 273, 24375 (1998), Papadimou et al., SKIN PHARMACOL. APPL. SKIN PHYSIOL. 13, 345 (2000)). These replots lead to the graphical determination of Ki values from the negative intercept of the line with the I-axis. […] Similar plots were constructed for all conjugates. The Ki value is a very good measure for the accurate potency of the polyamine-retinoid conjugates. […] Similar Ki values were obtained with normal human epidermal keratinocytes RNase P.
as §1

[6] = tested on: IFN-γ production by peripheral blood mononuclear cells; experiment: Intracellular IFN-γ in PMA/ionomycin-stimulated peripheral blood mononuclear cells (flow cytometry); format: cell-based, human
Protocol: (§2) Anti-Inflammatory Activity. Preliminary experiments were performed to determine the optimum conditions for IL-2 and IFN-γ detection intracellularly (data not shown), which mainly involved determination of brefeldin, ionomycin and PMA concentrations and duration of the incubation period and of the brefeldin presence. It was determined that the addition at the initiation of the incubation period of 5 ng/ml of PMA in combination with 250 ng/ml of ionomycin, as well as the addition for the last 2 h of a 4 h incubation period of 5 μg/ml of brefeldin, were accompanied by a peak release of both cytokines in the intracellular space.
(§3) For the purpose of the study, peripheral blood mononuclear cells (PBMC) from ten healthy volunteers (age 33-52 yrs) were incubated in 1 ml volume (RPMI 1640/10% FCS) for varying time periods at 37° C. in a CO2 (5%) incubator in the presence or absence of PMA (Sigma, St Louis, Mo.), ionomycin (Sigma, St Louis, Mo.) and/or the polyamine-retinoid conjugate (10^−4, 10^−5, 10^−6 M) as well as a protein transport inhibitor, brefeldin (Sigma, St Louis, Mo.) to prevent cytokine secretion in the extracellular space.
Following this incubation, PBMC were stained with either an anti-CD4-FITC or anti-CD8-FITC monoclonal antibody (Beckton Dikinson Hellas, Athens, Greece) in a PBS buffer containing 0.5% BSA and 0.01% NaN3, and were subsequently fixed with paraformaldehyde and incubated overnight. […] Fixed PBMC were subsequently stained with an anti-IL-2/PE or anti-IFN-γ/PE monoclonal antibody (Diaclone, Besancon, France) and analysed for intracellular expression of IL-2 or IFN-γ and membrane expression of the CD4 or CD8 antigens in a FACSCAN flow cytometer. […] The immunofluorescence cut-off was set up in unstimulated cultures as background and results were expressed either as the percentage of CD4/IL-2+ and CD8/IL-2+ (FIG. 9) and CD8/IFN-γ^+ and CD4/IFN-γ^+ (FIG. 11) cells, or alternatively as their mean fluorescence intensity (FIGS. 10 and 12, respectively).

[7] = tested on: IL-2 production by peripheral blood mononuclear cells; experiment: Intracellular IL-2 in PMA/ionomycin-stimulated peripheral blood mononuclear cells (flow cytometry); format: cell-based, human
Protocol: as §2, §3
Following this incubation, PBMC were stained with either an anti-CD4-FITC or anti-CD8-FITC monoclonal antibody (Beckton Dikinson Hellas, Athens, Greece) in a PBS buffer containing 0.5% BSA and 0.01% NaN3, and were subsequently fixed with paraformaldehyde and incubated overnight. In the next step, fixed PBMCs were washed and resuspended in a PBS buffer containing 0.5% BSA, 0.5% saponin (Sigma, St Louis, Mo.) (to permeabilize cells) and 0.01% NaN3. Fixed PBMC were subsequently stained with an anti-IL-2/PE or anti-IFN-γ/PE monoclonal antibody (Diaclone, Besancon, France) and analysed for intracellular expression of IL-2 or IFN-γ and membrane expression of the CD4 or CD8 antigens in a FACSCAN flow cytometer. Throughout this step, saponin-supplied PBS was used, since its permeabilisation effect is reversible. The immunofluorescence cut-off was set up in unstimulated cultures as background and results were expressed either as the percentage of CD4/IL-2+ and CD8/IL-2+ (FIG. 9) and CD8/IFN-γ^+ and CD4/IFN-γ^+ (FIG. 11) cells, or alternatively as their mean fluorescence intensity (FIGS. 10 and 12, respectively).

SMILES	Ki [1]	inhibition of ribonuclease P (RNase P) [2]	inhibition of the enzyme ribonuclease P (RNase P) [3]	Ki [5]	further results
CC(C=CC1=C(C)CCCC1(C)C)=CC=CC(C)=CC(=O)N(CCCN)CCCCN(CCCN)C(=O)C=C(C)C=CC=C(C)C=CC1=C(C)CCCC1(C)C [3DIIIa, N^4,N^9-Bis(All-Trans-Retinoyl)Spermine]	1.1 µM				
CC(C=CC1=C(C)CCCC1(C)C)=CC=CC(C)=CC(=O)NCCCNCCCCNCCCN [3DIIa, N^1-retinoylspermine]	2.4 µM				
COc1cc(C)c(/C=C/C(C)=C/C=C/C(C)=C/C(=O)O)c(C)c1C [Acitretin (Aci), acitretin]	8 µM	inhibit	inhibit the enzyme ribonuclease P		
CC1=C(/C=C/C(C)=C/C=C/C(C)=C\C(=O)O)C(C)(C)CCC1 [Isotretinoin, 13-cis-retinoic acid]	20 µM	inhibit	inhibit the enzyme ribonuclease P		
CC1=C(/C=C/C(C)=C/C=C/C(C)=C/C(=O)NCCCNC(=O)/C=C(C)/C=C/C=C(C)/C=C/C2=C(C)CCCC2(C)C)C(C)(C)CCC1 [N^1, N^3-diretinoyl-1,3-diaminopropane]					cytostatic activity [4]: low cytostatic activity
COc1cc(C)c(/C=C/C(C)=C/C=C/C(C)=C/C(=O)NCCCNCCCCNCCCNC(=O)/C=C(C)/C=C/C=C(C)/C=C/c2c(C)cc(OC)c(C)c2C)c(C)c1C [N^1,N^12-Aci2-Spermine (3DIb). 2 HCl, N^1,N^12-Aci2-Spermine]				0.95 µM	
CC1=C(/C=C/C(C)=C/C=C/C(C)=C/C(=O)NCCCNCCCCNCCCNC(=O)/C=C(C)/C=C/C=C(C)/C=C/C2=C(C)CCCC2(C)C)C(C)(C)CCC1 [N^1,N^12-RA2-Spermine (3DIa), N^1,N^12-Bisretinoylspermine]				0.5 µM	CD4+/IFN-γ+ cell intensity of fluorescence ([6]; 10^−4 M, PMA/ionomycin-induced): decrease; percentage of CD8+/IFN-γ+ cells ([6]; 10^−4 M, PMA/ionomycin-induced): decrease; effect on IFN-γ (CD4+/IFN-γ+ intensity of fluorescence, percentage of CD8+/IFN-γ+ cells) ([6]; two lower concentrations, 10^−5 and 10^−6 M): minimal or no effect; intensity of fluorescence (MFI) of CD4+/IL-2+ cells ([7]; 10^−4 M, PMA/ionomycin-induced): decrease; intensity of fluorescence (MFI) of CD8+/IL-2+ cells ([7]; 10^−4 M, PMA/ionomycin-induced): decrease; percentage of CD4+/IL-2+ cells ([7]; 10^−4 M, PMA/ionomycin-induced): decrease; percentage of CD8+/IL-2+ cells ([7]; 10^−4 M, PMA/ionomycin-induced): decrease; effect on PMA/ionomycin-induced IL-2 (percentage of CD4+/IL-2+ and CD8+/IL-2+ cells, intensity of fluorescence) ([7]; 10^−5 and 10^−6 M): minimal or no effect
COc1cc(C)c(/C=C/C(C)=C/C=C/C(C)=C/C(=O)NCCCNCCCCNCCCN)c(C)c1C [N^1-Aci-Spermine (3DIIb). 3 HCl, N^1-Aci-Spermine]				2.45 µM	
CC1=C(/C=C/C(C)=C/C=C/C(C)=C/CO)C(C)(C)CCC1 [Retinol, retinol]	1480 µM	inhibit	inhibit the enzyme ribonuclease P		
CCOC(=O)c1ccc(/C=C(\C)c2ccc3c(c2)C(C)(C)CCC3(C)C)cc1 [Ro 13-6298]		inhibit	inhibit the enzyme ribonuclease P	4350 µM	
C/C(=C\c1ccc(C(=O)O)cc1)c1ccc2c(c1)C(C)(C)CCC2(C)C [Ro 13-7410]		inhibit	inhibit the enzyme ribonuclease P	45 µM	
CCS(=O)(=O)c1ccc(/C=C(\C)c2ccc3c(c2)C(C)(C)CCC3(C)C)cc1 [Ro 15-1570]		inhibit	inhibit the enzyme ribonuclease P	3600 µM	
CC1=C(/C=C/C(C)=C/C=C/C(C)=C/C(=O)O)C(C)(C)CCC1 [all-trans-Retinoic acid (RA), all-trans-retinoic acid]	15 µM	inhibit	inhibit the enzyme ribonuclease P		
O=C1c2c(O)cccc2Cc2cccc(O)c21 [anthralin]			inhibit the enzyme ribonuclease P		
C=C1/C(=C\C=C2/CCC[C@]3(C)[C@@H]([C@H](C)/C=C/[C@@H](O)C4CC4)CC[C@@H]23)C[C@@H](O)C[C@@H]1O [calcipotriol]		inhibit	inhibit the enzyme ribonuclease P		
